# “And” between values parts separate entries of the source, which are not always exact repeats. Equal values may be shown once.
# Species on record: Rattus norvegicus
# Experiment: DrugMatrix - Regimen: Daily Repeat
# Type: toxicity, organism-based, Sprague-Dawley
# Set-up: regimen Daily Repeat, gender Male, age 6-8 weeks
# Details: in vivo, vehicle 100 % SALINE
# [1] = iv, 15 mg/kg, 72 h, tissue Plasma, dose level High, time 3 day
# [2] = iv, 15 mg/kg, 120 h, tissue Blood, dose level High, time 5 day
# [3] = iv, 15 mg/kg, 120 h, tissue Plasma, dose level High, time 5 day
# [4] = sc, 0 mg/kg, 72 h, tissue Blood, route mini-PUMP - SUBCUTANEOUS, dose level Control, time 3 day
# [5] = sc, 0 mg/kg, 72 h, tissue Plasma, route mini-PUMP - SUBCUTANEOUS, dose level Control, time 3 day
# [6] = sc, 0 mg/kg, 120 h, tissue Blood, route mini-PUMP - SUBCUTANEOUS, dose level Control, time 5 day
# [7] = sc, 0 mg/kg, 120 h, tissue Plasma, route mini-PUMP - SUBCUTANEOUS, dose level Control, time 5 day
compound,measurement,setting,value
CC(C)NCC(O)c1ccc(O)c(O)c1 (stereo not given) [ISOPROTERENOL],POTASSIUM,[1],6.86 MEQ/L
same,SODIUM,[1],146.03 MEQ/L
same,TOTAL BILIRUBIN,[1],0.13 mg/dL
same,TOTAL PROTEIN,[1],5.8 G/DL
same,URIC ACID,[1],1.53 mg/dL
same,ABSOLUTE BASOPHIL,[2],0 CELLS/uL
same,ABSOLUTE EOSINOPHIL,[2],89.33 CELLS/uL
same,ABSOLUTE LYMPHOCYTE,[2],14556.33 CELLS/uL
same,ABSOLUTE MONOCYTE,[2],270.67 CELLS/uL
same,ABSOLUTE SEGMENTED NEUTROPHIL,[2],850.33 CELLS/uL
same,BASOPHIL,[2],0%
same,EOSINOPHIL,[2],0.67%
same,ERYTHROCYTE COUNT,[2],5.8 x10E6/uL
same,HEMATOCRIT,[2],37.17%
same,HEMOGLOBIN,[2],13.6 G/DL
same,LEUKOCYTE COUNT,[2],15.77 x10E3/uL
same,LYMPHOCYTE,[2],92%
same,MEAN CORPUSCULAR HEMOGLOBIN,[2],23.53 pg
same,MEAN CORPUSCULAR HEMOGLOBIN CONCENTRATION,[2],36.7 G/DL
same,MEAN CORPUSCULAR VOLUME,[2],64.07 fL
same,MONOCYTE,[2],1.67%
same,NEUTROPHIL,[2],5.67%
same,NUCLEATED RED BLOOD CELLS,[2],0 /100WBC
same,PLATELET COUNT,[2],1301.33 x10E3/uL
same,ALANINE AMINOTRANSFERASE,[3],56 u/L
same,ALBUMIN,[3],4.03 G/DL
same,ALKALINE PHOSPHATASE,[3],369.67 u/L
same,ASPARTATE AMINOTRANSFERASE,[3],62.33 u/L
same,BLOOD UREA NITROGEN,[3],14.33 mg/dL
same,CARBON DIOXIDE,[3],30.33 mmol/L
same,CHLORIDE,[3],103.67 MEQ/L
same,CHOLESTEROL,[3],65.67 mg/dL
same,CREATINE PHOSPHOKINASE,[3],190.67 u/L
same,CREATININE,[3],0.23 mg/dL
same,GLUCOSE,[3],141 mg/dL
same,LACTATE DEHYDROGENASE,[3],80 u/L
same,LIPASE,[3],9 u/L
same,PHOSPHORUS,[3],11.63 mg/dL
same,POTASSIUM,[3],6.67 MEQ/L
same,SODIUM,[3],146.27 MEQ/L
same,TOTAL BILIRUBIN,[3],0.2 mg/dL
same,TOTAL PROTEIN,[3],6.13 G/DL
same,URIC ACID,[3],1.43 mg/dL
same,ABSOLUTE SEGMENTED NEUTROPHIL,[4],1658.33 CELLS/uL
same,BASOPHIL,[4],0.3% and 0%
same,EOSINOPHIL,[4],0.43% and 0.5%
same,ERYTHROCYTE COUNT,[4],6.91 x10E6/uL and 6.27 x10E6/uL
same,HEMATOCRIT,[4],45.43% and 36.95%
same,HEMOGLOBIN,[4],14.37 G/DL and 13.4 G/DL
same,LEUKOCYTE COUNT,[4],12.09 x10E3/uL and 16.38 x10E3/uL
same,LYMPHOCYTE,[4],81.73% and 87.17%
same,MEAN CORPUSCULAR HEMOGLOBIN,[4],20.8 pg and 21.42 pg
same,MEAN CORPUSCULAR HEMOGLOBIN CONCENTRATION,[4],31.67 G/DL and 36.27 G/DL
same,MEAN CORPUSCULAR VOLUME,[4],65.83 fL and 59.03 fL
same,MONOCYTE,[4],1.83% and 2%
same,NEUTROPHIL,[4],15.07% and 10.33%
same,NUCLEATED RED BLOOD CELLS,[4],0 /100WBC
same,PLATELET COUNT,[4],1299.67 x10E3/uL and 904.67 x10E3/uL
same,ALANINE AMINOTRANSFERASE,[5],34.33 u/L and 48.33 u/L
same,ALBUMIN,[5],3.83 G/DL and 3.82 G/DL
same,ALKALINE PHOSPHATASE,[5],333.67 u/L and 282.33 u/L
same,ASPARTATE AMINOTRANSFERASE,[5],68 u/L and 86.83 u/L
same,BLOOD UREA NITROGEN,[5],19.33 mg/dL and 20.17 mg/dL
same,CARBON DIOXIDE,[5],43 mmol/L and 34.67 mmol/L
same,CHLORIDE,[5],103.67 MEQ/L and 102 MEQ/L
same,CHOLESTEROL,[5],84.33 mg/dL and 71.5 mg/dL
same,CREATINE PHOSPHOKINASE,[5],334.33 u/L
same,CREATININE,[5],0.53 mg/dL and 0.2 mg/dL
same,GLUCOSE,[5],156.67 mg/dL and 136.83 mg/dL
same,LACTATE DEHYDROGENASE,[5],159 u/L
same,PHOSPHORUS,[5],9.8 mg/dL and 10.12 mg/dL
same,POTASSIUM,[5],5.93 MEQ/L and 5.92 MEQ/L
same,SODIUM,[5],146.33 MEQ/L and 147.8 MEQ/L
same,TOTAL BILIRUBIN,[5],0.37 mg/dL and 0.2 mg/dL
same,TOTAL PROTEIN,[5],6.4 G/DL and 6.05 G/DL
same,URIC ACID,[5],0.73 mg/dL and 1.4 mg/dL
same,ABSOLUTE SEGMENTED NEUTROPHIL,[6],3216.67 CELLS/uL
same,BASOPHIL,[6],0.2% and 0%
same,EOSINOPHIL,[6],0.33% and 0%
same,ERYTHROCYTE COUNT,[6],6.81 x10E6/uL and 6.11 x10E6/uL
same,HEMATOCRIT,[6],44.33% and 36.22%
same,HEMOGLOBIN,[6],13.77 G/DL and 13.18 G/DL
same,LEUKOCYTE COUNT,[6],11.2 x10E3/uL and 17.8 x10E3/uL
same,LYMPHOCYTE,[6],80.33% and 80.5%
same,MEAN CORPUSCULAR HEMOGLOBIN,[6],20.23 pg and 21.62 pg
same,MEAN CORPUSCULAR HEMOGLOBIN CONCENTRATION,[6],31.03 G/DL and 36.42 G/DL
same,MEAN CORPUSCULAR VOLUME,[6],65.1 fL and 59.37 fL
same,MONOCYTE,[6],2.1% and 1.83%
same,NEUTROPHIL,[6],16.43% and 17.67%
same,NUCLEATED RED BLOOD CELLS,[6],0 /100WBC
same,PLATELET COUNT,[6],1573.33 x10E3/uL and 1311 x10E3/uL
same,ALANINE AMINOTRANSFERASE,[7],38 u/L and 47 u/L
same,ALBUMIN,[7],3.87 G/DL and 3.83 G/DL
same,ALKALINE PHOSPHATASE,[7],303.67 u/L and 260.33 u/L
same,ASPARTATE AMINOTRANSFERASE,[7],72.67 u/L and 76.17 u/L
same,BLOOD UREA NITROGEN,[7],17.33 mg/dL and 14.67 mg/dL
same,CARBON DIOXIDE,[7],41.33 mmol/L and 31.33 mmol/L
same,CHLORIDE,[7],104.33 MEQ/L and 101.17 MEQ/L
same,CHOLESTEROL,[7],74.33 mg/dL and 75 mg/dL
same,CREATINE PHOSPHOKINASE,[7],286.67 u/L
same,CREATININE,[7],0.47 mg/dL and 0.16 mg/dL
same,GLUCOSE,[7],152.33 mg/dL and 152.67 mg/dL
same,LACTATE DEHYDROGENASE,[7],147.33 u/L
same,PHOSPHORUS,[7],10 mg/dL and 10.97 mg/dL
same,POTASSIUM,[7],6.4 MEQ/L and 6 MEQ/L
same,SODIUM,[7],146 MEQ/L and 145.52 MEQ/L
same,TOTAL BILIRUBIN,[7],0.43 mg/dL and 0.17 mg/dL
same,TOTAL PROTEIN,[7],6.27 G/DL and 5.83 G/DL
same,URIC ACID,[7],0.83 mg/dL and 1.27 mg/dL
same,ABSOLUTE SEGMENTED NEUTROPHIL,"sc, 0 mg/kg, […], tissue Blood, route mini-PUMP - SUBCUTANEOUS, dose level Control, time 14 day",2414 CELLS/uL
